Results on 4 molecules are retold here after patent US20040235955A1, “Remedies for pruritus” (priority 2001, published 2004).

Experiment [1] deals with pruritus induced by serotonin and PGE2. Kind of experiment: inhibitory effect against pruritus induced by serotonin and PGE2 (scratching count). The experiment is classed as in vivo. The note with it: male ICR mice, scratching counted for 30 minutes, vs control. The procedure: The inhibitory effect against pruritus induced by serotonin and PGE2.
The back of male ICR mice (Charles River Japan Inc., 5 week-old) were sheared by hair clipper. 0.5% MC or the above test compound (100 mg/5 ml/kg or 300 mg/5 ml/kg) was administered orally. After 15 minutes or 1hour, serotonin (3 μg) or mixed solution of serotonin (3 μg) and PGE2 (1nmol) was injected intradermally (20 μl) into the. back of mouse. Scratching of the injected site or the perimeter by the behind paws of mouse was characterized as itch. The scratching was counted for 30 minutes from the injection.
0.5% MC [administration at 15 minutes before the induction]/serotonin (n=10) 0.5% MC [administration at 15 minutes before the induction]/serotonin+PGE2 (n=10) compound (1) [administration at 15 minutes before the induction]/serotonin+PGE2 (n=10) compound (2) [administration at 15 minutes before the
0.5% MC [administration at 1hour before the induction]/serotonin (n=10) 0.5% MC [administration at 1hour before the induction]/serotonin+PGE2 (n=10) compound (3) [administration at 1hour before the induction]/serotonin+PGE2 (n=10)

Experiment [2] deals with model of allergic dermatitis. Description: inhibitory effect against pruritus in a model of allergic dermatitis (DNFB hapten, scratching count). It is filed as in vivo. The note with it: male BALB/c mice; 0.15% DNFB weekly; 100 mg/5 ml/kg orally; scratching from 3 to 5 hours and from 24 to 26 hours after fifth application of hapten; vs control; FIG. 3. The procedure: The inhibitory effect against pruritus in a model of allergic dermatitis. The back of male BALB/c mice (Charles River Japan Inc., 6 week-old) were sheared by hair clipper. 0.15% dinitrofluorobenzene (DNFB) dissolved in mixed solution of acetone and olive oil as hapten was administered 50 μl by micro pipette in the back once a week. After forth applications, the scratching was measured from 3 to 5 hours and from 24 to 26 hours and mice were divided to each group referring the scratch data. 0.5% MC or the test compound (100 mg/5 ml/kg) was administered orally forth every 30 minutes from 30 minutes before 3 and 24 hours, respectively after fifth application of hapten. The scratching was videotaped from 3 to 5 hours and from 24 to 26 hours, respectively, after fifth application of hapten. The scratching was counted and estimated.

[3] abbreviates: 100 mg/5 ml/kg orally 15 minutes before intradermal serotonin (3 μg) + PGE2 (1 nmol), FIG. 1.

`O=C([O-])CCc1ccc(Cn2cccn2)cc1OCCc1ccc2ccccc2c1.[Na+]` [Compound (1), sodium 3-(2-(2-(naphthalen-2-yl)ethoxy)-4-(pyrazol-1-ylmethyl)phenyl)propanoate]: the “number of scratching in serotonin and PGE2-induced pruritus” value in experiment [1] (setting [3]) is listed as “inhibited significantly against control”.

Take `CC(C)CC(C(=O)Nc1cc(C#N)ccc1Cc1ccccc1C(=O)[O-])c1cccc2ccccc12.[Na+]` (stereo not shown) [Compound (2), sodium 2-[4-cyano-2-[4-methyl-2-(1-naphthyl)pentanoylamino]phenylmethyl]benzoate]: the “number of scratching in serotonin and PGE2-induced pruritus” value in experiment [1] (setting [3]) is recorded as “inhibited significantly against control”.

`COc1ccc(Br)cc1S(=O)(=O)NC(=O)/C=C/c1ccccc1Cc1ccc2ccccc2c1` [Compound (3), (2E)-N-(5-bromo-2-methoxyphenylsulfonyl)-3-(2-(naphthalen-2-ylmethyl)phenyl) -2-propenamide]: the “number of scratching in serotonin and PGE2-induced pruritus” value in experiment [1] (300 mg/5 ml/kg orally 1 hour before intradermal serotonin (3 μg) + PGE2 (1 nmol), FIG. 2) is given as “inhibited significantly against control”.

For `O=C(O)CCc1ccc(Cn2cccn2)cc1OCCc1ccc2ccccc2c1` [Compound (4), 3-(2-(2-(naphthalen-2-yl)ethoxy)-4-(pyrazol-1-ylmethyl)phenyl)propanoic acid], the “number of scratching in allergic dermatitis model” value in experiment [2] is listed as “inhibited significantly against control”.
